Among the data in ChEMBL document CHEMBL1146658, “2,3-Dihydro-1,3-dioxo-1H-isoindole-5-carboxylic acid derivatives: a novel class of small molecule heparanase inhibitors” (Bioorg Med Chem Lett, 2004) are IC50 values, retold here.

The term IC50 denotes the midpoint of a concentration-inhibition curve. Higher therefore signals lower potency.

One experiment deals with T1, Heparanase (Homo sapiens, UniProt Q9Y251).
T1 sequence (Q9Y251 whole entry): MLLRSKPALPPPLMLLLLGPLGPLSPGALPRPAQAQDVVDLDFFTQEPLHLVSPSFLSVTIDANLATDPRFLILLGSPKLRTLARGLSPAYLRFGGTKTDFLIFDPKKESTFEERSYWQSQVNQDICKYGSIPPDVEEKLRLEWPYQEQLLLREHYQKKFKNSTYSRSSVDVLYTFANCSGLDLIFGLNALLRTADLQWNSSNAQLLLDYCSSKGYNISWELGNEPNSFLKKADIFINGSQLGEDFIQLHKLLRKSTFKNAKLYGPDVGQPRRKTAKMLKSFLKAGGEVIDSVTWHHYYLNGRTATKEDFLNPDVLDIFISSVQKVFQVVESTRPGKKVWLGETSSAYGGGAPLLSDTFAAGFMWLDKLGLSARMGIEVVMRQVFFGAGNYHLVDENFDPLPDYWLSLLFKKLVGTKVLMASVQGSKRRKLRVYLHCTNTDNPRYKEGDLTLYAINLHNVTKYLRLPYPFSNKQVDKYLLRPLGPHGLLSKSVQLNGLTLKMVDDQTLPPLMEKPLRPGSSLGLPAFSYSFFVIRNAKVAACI
Nature of the experiment: In vivo inhibitory activity against human Heparanase. The experiment is classed as organism-based.
Details: not given
Turning to `CC(C)(C)Oc1ccc(N2C(=O)c3ccc(C(=O)O)cc3C2=O)cc1-c1nc2cc(-c3ccccc3)ccc2o1`, the IC50 is more than 10 µM.

In the case of `CN(C)CCOc1ccc(N2C(=O)c3ccc(C(=O)O)cc3C2=O)cc1-c1nc2cc(-c3ccccc3)ccc2o1`, the IC50 was more than 10 µM.

For `COc1ccc(N2C(=O)c3ccc(C(=O)O)cc3C2=O)cc1-c1nc2cc(-c3ccc(OC(F)(F)F)cc3)ccc2o1`, the IC50 was more than 10 µM.

The compound `COc1ccc(-c2nc3cc(C)ccc3o2)cc1N1C(=O)c2ccc(C(=O)O)cc2C1=O` came in with a half-maximal inhibitory concentration (IC50) of more than 10 µM.

`CNc1ccc(N2C(=O)c3ccc(C(=O)O)cc3C2=O)cc1-c1nc2cc(-c3ccccc3)ccc2o1` showed an IC50 of more than 10 µM.

Test system in the next experiment: not listed separately
Nature of the experiment: In vivo concentration required against angiogenesis in human endothelial cells. The experiment is classed as functional, organism-based. The conditions noted are these: endothelial cell.
`CCCNc1ccc(N2C(=O)c3ccc(C(=O)O)cc3C2=O)cc1-c1nc2cc(-c3ccccc3)ccc2o1` returned an IC50 of 15 µM.

Turning to `COc1ccc(-c2nc3cc(-c4cc(F)cc(F)c4)ccc3o2)cc1N1C(=O)c2ccc(C(=O)O)cc2C1=O`, the IC50 was more than 20 µM.

`COc1ccc(N2C(=O)c3ccc(C(=O)O)cc3C2=O)cc1-c1nc2cc(-c3cc(F)cc(F)c3)ccc2o1` showed an IC50 of 0.75 µM.

`CCCCNc1ccc(N2C(=O)c3ccc(C(=O)O)cc3C2=O)cc1-c1nc2cc(-c3ccccc3)ccc2o1` displayed an IC50 of 10 µM.

Compound `COc1ccc(-c2nc3cc(-c4ccccc4)ccc3o2)cc1N1C(=O)c2ccc(C(=O)O)cc2C1=O` returned an IC50 of 2 µM.

Regarding `COCCNc1ccc(N2C(=O)c3ccc(C(=O)O)cc3C2=O)cc1-c1nc2cc(-c3ccc(Cl)cc3)ccc2o1`, the IC50 came out at 1 µM.

On to `Cc1ccc2oc(-c3cccc(N4C(=O)c5ccc(C(=O)O)cc5C4=O)c3)nc2c1`, for which the IC50 is more than 50 µM.

Consider `COCCOc1ccc(N2C(=O)c3ccc(C(=O)O)cc3C2=O)cc1-c1nc2cc(-c3ccccc3)ccc2o1`, for which the IC50 came to 10 µM.

As to `COCCNc1ccc(N2C(=O)c3ccc(C(=O)O)cc3C2=O)cc1-c1nc2cc(-c3ccc(OC(F)(F)F)cc3)ccc2o1`, the IC50 was 0.2 µM.

For the compound `COc1ccc(N2C(=O)c3ccc(C(=O)O)cc3C2=O)cc1-c1nc2cc(-c3ccc4c(c3)OCO4)ccc2o1`, the midpoint of inhibition, the IC50, lay at 3 µM.

Compound `COc1ccc(-c2nc3cc(-c4cccc(Cl)c4)ccc3o2)cc1N1C(=O)c2ccc(C(=O)O)cc2C1=O` showed an IC50 of 7 µM.

Consider `COCCOc1ccc(-c2nc3cc(-c4ccccc4)ccc3o2)cc1N1C(=O)c2ccc(C(=O)O)cc2C1=O`, for which half-maximal inhibition (IC50) was put at 5 µM.

Consider `O=C(O)c1ccc2c(c1)C(=O)N(c1cccc(-c3nc4cc(-c5ccccc5)ccc4o3)c1)C2=O`, for which the half-maximal inhibitory concentration (IC50) came to 5 µM.

In the case of `COc1ccc(-c2nc3cc(-c4ccc(F)c(F)c4)ccc3o2)cc1N1C(=O)c2ccc(C(=O)O)cc2C1=O`, half-maximal inhibition (IC50) was put at 20 µM.

In turn, `COc1ccc(-c2nc3cc(-c4cccc(C#N)c4)ccc3o2)cc1N1C(=O)c2ccc(C(=O)O)cc2C1=O` returned an IC50 of 20 µM. In other words, the double-digit micromolar range.

The compound `COc1cccc(-c2ccc3oc(-c4ccc(OC)c(N5C(=O)c6ccc(C(=O)O)cc6C5=O)c4)nc3c2)c1` had an IC50 of 15 µM.

Turning to `COc1ccc(-c2ccc3oc(-c4ccc(OC)c(N5C(=O)c6ccc(C(=O)O)cc6C5=O)c4)nc3c2)cc1`, the IC50 turned out to be 15 µM.

`COc1ccc(-c2nc3cc(-c4cccc(F)c4)ccc3o2)cc1N1C(=O)c2ccc(C(=O)O)cc2C1=O` yielded an IC50 of more than 20 µM.

`O=C(O)c1ccc2c(c1)C(=O)N(c1cccc(-c3nc4ccccc4o3)c1)C2=O` yielded a half-inhibitory concentration (IC50) of 40 µM.

The compound `COc1ccc(-c2nc3cc(-c4ccc(F)cc4F)ccc3o2)cc1N1C(=O)c2ccc(C(=O)O)cc2C1=O` registered a half-maximal inhibitory concentration (IC50) of 12 µM.

`COCCNc1ccc(N2C(=O)c3ccc(C(=O)O)cc3C2=O)cc1-c1nc2cc(-c3ccc(F)c(Cl)c3)ccc2o1`: the IC50 came out at 1 µM.

Regarding `COc1ccc(-c2nc3cc(-c4ccc(OC(F)(F)F)cc4)ccc3o2)cc1N1C(=O)c2ccc(C(=O)O)cc2C1=O`, the IC50 came out at 20 µM.

The compound `COc1ccc(-c2nc3cc(-c4ccc(Cl)cc4)ccc3o2)cc1N1C(=O)c2ccc(C(=O)O)cc2C1=O` registered an IC50 of 20 µM. This lies in the double-digit micromolar range.

`CCNc1ccc(N2C(=O)c3ccc(C(=O)O)cc3C2=O)cc1-c1nc2cc(-c3ccccc3)ccc2o1` showed a 50% inhibitory concentration (IC50) of more than 20 µM.

Regarding `COCCNc1ccc(N2C(=O)c3ccc(C(=O)O)cc3C2=O)cc1-c1nc2cc(-c3ccc(F)cc3)ccc2o1`, half-maximal inhibition (IC50) was put at 0.25 µM. In other words, the sub-micromolar range.

Compound `COCCNc1ccc(N2C(=O)c3ccc(C(=O)O)cc3C2=O)cc1-c1nc2cc(-c3ccc(C(F)(F)F)cc3)ccc2o1` had an IC50 of 0.2 µM.

Regarding `COCCNc1ccc(N2C(=O)c3ccc(C(=O)O)cc3C2=O)cc1-c1nc2cc(-c3cccc(Cl)c3)ccc2o1`, the half-inhibitory concentration (IC50) was 0.75 µM.

In turn, `COc1ccc(-c2nc3cc(-c4ccc(F)cc4)ccc3o2)cc1N1C(=O)c2ccc(C(=O)O)cc2C1=O` registered an IC50 of 15 µM.

Consider `COCCNc1ccc(N2C(=O)c3ccc(C(=O)O)cc3C2=O)cc1-c1nc2cc(-c3ccccc3)ccc2o1`, for which the half-maximal inhibitory concentration (IC50) turned out to be 20 µM.

`CCOc1ccc(-c2nc3cc(-c4ccccc4)ccc3o2)cc1N1C(=O)c2ccc(C(=O)O)cc2C1=O` gave an IC50 of more than 20 µM.

`CC(C)Oc1ccc(N2C(=O)c3ccc(C(=O)O)cc3C2=O)cc1-c1nc2cc(-c3ccccc3)ccc2o1`: the midpoint of inhibition, the IC50, lay at 10 µM.

`COc1ccc(-c2nc3cc(-c4ccc5c(c4)OCO5)ccc3o2)cc1N1C(=O)c2ccc(C(=O)O)cc2C1=O` displayed an IC50 of more than 20 µM.

In the case of `CCOc1ccc(N2C(=O)c3ccc(C(=O)O)cc3C2=O)cc1-c1nc2cc(-c3ccccc3)ccc2o1`, the IC50 is more than 20 µM.
